# In article PMC12648656, “Palladium(II) Complexes with Noncovalent Interactions with DNA: Solution Speciation Controlled by Solvent Identity, pH, and Concentration” (Inorganic Chemistry, 2025):
# Where two headings read alike, the source gives them in different places.
# Assays:
# [1] = test system: MCF7 human breast cancer cell line; parameters: method as in marks after cisplatin lost in b83 (probably 43, 44); conditions: MCF7, 72 h exposure; ref marks after cisplatin lost in b83 (probably 43, 44); cited from earlier work
# [2] = test system: calf thymus-DNA (CT-DNA); assay: Viscometry with CT-DNA; format: binding; conditions: compound/DNA ratios 0.0 to 1.0; 5 mM Tris, 100 mM NaCl, pH 7.40, 25.0 °C
# Protocol: […] Then, the samples were incubated at 37 °C and with constant shaking at 300 rpm for 10 min and 1 h. After each incubation, the viscosity was measured at a constant temperature of 25.0 ± 0.2 °C in a vibrational viscometer. The relative viscosity was calculated by taking the mean values of three replicate measurements, and the values were represented by plotting the values of relative viscosity of CT-DNA (η/η0)^1/3 against 1/R.
# [3] = test system: pBR322 plasmid DNA; assay: Agarose gel electrophoresis mobility shift; format: binding; conditions: r i 0.01 to 0.20, 24 h, 37 °C
# Protocol: Complexes (2) and (3) were incubated at 37 °C with a concentration of 0.0625 μg/μL pBR322 plasmid DNA at different concentrations expressed as r i = complex:DNA (base pair) ratio. The r i used was from 0.01 to 0.20, in a total volume of 20 μL. After an incubation period of 24 h, the mobility of the complex-treated pBR322 samples was analyzed by gel electrophoresis at 70 V in Tris/acetate/EDTA buffer. A control of pBR322 was also incubated, and a 1 kb ladder aliquot was loaded into lane 1 of the gel. The gel was stained with an ethidium bromide aqueous solution, and DNA bands were visualized with a UV-transilluminator UVITEC Cambridge UVIDOC HD2 instrument. The studies were performed with 3% (v/v) DMSO as the final solution.
# [4] = molecular target: T1, hen egg white lysozyme (HEWL) (Gallus gallus, UniProt P00698); parameters: method as in not given; conditions: reported under the same conditions; ref not given; cited from earlier work
# T1 construct: a model protein, namely HEWL (hen egg white lysozyme), was also studied; from tissue; host or cells: hen egg white (from the protein's name)
# T1 sequence (P00698 19-147): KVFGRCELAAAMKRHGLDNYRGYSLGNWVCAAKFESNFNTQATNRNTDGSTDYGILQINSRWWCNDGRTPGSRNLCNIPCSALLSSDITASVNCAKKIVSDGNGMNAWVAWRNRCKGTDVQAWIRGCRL
# [5] = test system: Colo 205 human colon cancer cell line; parameters: method as in marks after cisplatin lost in b83 (probably 43, 44); conditions: Colo 205, 72 h exposure; ref marks after cisplatin lost in b83 (probably 43, 44); cited from earlier work
# [6] = test system: Colo 205 human colon cancer cell line; assay: In vitro cytotoxicity, MTT; format: cell-based; conditions: Colo 205, 72 h exposure
# Protocol: (§1) Cell culture reagents were obtained from Merck, and plasticware was obtained from Sarstedt. Human colon adenocarcinoma cell line Colo 205 (ATCC CCL-222) and MCF7 (ATCC HTB-22) breast cancer cells were purchased from LGC Promochem. Cancer cells were cultured in RPMI 1640 medium supplemented with 10% heat-inactivated fetal bovine serum, 2 mM L-glutamine, and 1 mM sodium pyruvate and buffered with 100 mM HEPES. The cells were incubated at 37 °C in a 5% CO2, 95% air atmosphere and were detached with Trypsin-Versene (EDTA) solution for 5 min at 37 °C.
# (§2) The tested ligands were dissolved in DMSO, and the stock solutions (5 mM) were diluted in complete culture medium. Two-fold serial dilutions of compounds were made in 100 μL of the medium, horizontally. The semiadherent colon adenocarcinoma cells were treated with Trypsin-Versene (EDTA) solution. They were adjusted to a density of 1 × 10^4 cells in 100 μL of RPMI 1640 medium and were added to each well, with the exception of the medium control wells. The final volume of the wells containing compounds and cells was 200 μL. The plates containing the cells were incubated at 37 °C for 72 h; at the end of the incubation period, 20 μL of MTT solution (5 mg/mL) was added to each well. After incubation at 37 °C for 4 h, 100 μL of sodium dodecyl sulfate solution (10% in 0.01 M HCl) was added to each well, and the plates were further incubated at 37 °C overnight. Cell growth was determined by measuring the optical density (OD) at 540 and 630 nm with a Multiskan EX plate reader (Thermo Labsystems).
# (§3) Curves for the data obtained on cancer cells were fitted by GraphPad Prism software using the sigmoidal dose–response model (comparing variable and fixed slopes). The IC50 values were always obtained from at least three independent experiments.
# [7] = test system: MCF7 human breast cancer cell line; assay: In vitro cytotoxicity, MTT; format: cell-based; conditions: Homo sapiens; MCF7, 72 h exposure
# Protocol: as §1, §2, §3
# [8] = Solubility observations; format: physicochemical; conditions: as observed; aqueous solution for HL
# [9] = test system: methicillin-resistant Staphylococcus aureus (ATCC 43300); assay: microbe, parasite or virus in culture; format: cell-based; conditions: 18 h
# Protocol: (§4) Antibacterial activity was determined for the title compounds in various Gram-negative and Gram-positive bacterial strains, namely Klebsiella pneumoniae, Escherichia coli (ATCC 25922), Staphylococcus aureus (272123), methicillin-resistant Staphylococcus aureus (ATCC 43300), and Enterococcus faecalis (ATCC 29212). The stock solutions of the tested compounds were prepared in DMSO at a 5 mM concentration. […] All stock solutions were diluted in 100 μL of Mueller Hinton Broth, and then two-fold serial dilutions were performed. Then, a 10^–4 dilution of an overnight bacterial culture in 100 μL of medium was added to each well, except for the medium control wells. The highest concentration of the compounds in the tested samples was 100 μM. The plates were incubated at 37 °C for 18 h. After that, the MIC values were determined by visual inspection.
# [10] = Spectrophotometric (UV-vis) pH titrations for proton dissociation constants; format: physicochemical; conditions: I = 0.10 M (KCl), 25.0 °C
# Protocol: Spectrophotometric titrations were applied to study the equilibrium processes (proton dissociation and complex dissociation/formation) in DMSO/H2O mixtures due to the limited aqueous solubility of the compounds. The calibration of the electrode system was performed by strong acid–strong base pH-potentiometric titrations in 30% (v/v) and 60% (v/v) DMSO/H2O solvent mixtures at 25.0 ± 0.1 °C as described in our previous works. , KCl (0.1 M) was the supporting electrolyte to maintain constant ionic strength, which refers to the chloride ion concentration in blood plasma. […] The initial sample volume was 5 mL. Spectrophotometric titrations were performed in the pH range 1.8–12.5 for 30% (v/v) DMSO/H2O medium and 1.8–14.0 for 60% (v/v) DMSO/H2O medium. Prior to the titrations, purified argon was passed through the samples for approximately 10 min to remove CO2 traces, and argon was also passed over the samples during these measurements. The proton dissociation constants were calculated by using the computer program PSEQUAD.
# [11] = n-Octanol/water and n-octanol/Tris buffer shake-flask partitioning; format: physicochemical
# Protocol: The distribution coefficient values (D 7.4) of the compounds were determined by the traditional shake-flask method in n-octanol/buffered aqueous solution at pH 7.40 for 5 mM Tris HCl with 0.1 M KCl and at pH 7.4 at 25.0 ± 0.2 °C. The ligand and complexes were dissolved in n-octanol (presaturated by the aqueous buffer) because of the very low aqueous solubility. The aqueous buffer solution and n-octanol ratio was 1:1 due to the expected high lipophilicity of the compounds. First, samples were mixed with vertical rotation (∼20 rpm) for 3 h, and then the two phases were separated by centrifugation at 3000 rpm (∼1000g) for 3 min. After separation, UV–vis spectra of the compounds were recorded in both phases. Spectra of the n-octanol phases were compared to those of the original n-octanol stock solutions.
# The distribution coefficient values were also determined using unbuffered water and octanol (also presaturated) with a ratio of 1:1.
# [12] = test system: Enterococcus faecalis (ATCC 29212); assay: Antibacterial MIC, broth dilution; format: cell-based
# Protocol: as §4
# [13] = test system: Escherichia coli (ATCC 25922); assay: Antibacterial MIC, broth dilution; format: cell-based
# Protocol: as §4
# [14] = test system: Staphylococcus aureus (272123); assay: Antibacterial MIC, broth dilution; format: cell-based; conditions: 18 h
# Protocol: as §4
# [15] = test system: Klebsiella pneumoniae; assay: Antibacterial MIC, broth dilution; format: cell-based; conditions: 18 h
# Protocol: as §4
# [16] = test system: glutathione (GSH); assay: Reaction with glutathione followed by UV-vis; conditions: 30-fold GSH, ~20 μM complex, 60% (v/v) DMSO/phosphate buffer pH 7.4, 25.0 °C
# Protocol: Reactions between the title compounds and GSH were also followed by UV–vis spectrophotometry under an inert atmosphere to overcome oxidation of GSH by air oxygen. Samples contained the metal complexes at low concentrations (∼20 μM) and were prepared using 60% (v/v) DMSO/phosphate buffer solution (pH 7.4) to avoid precipitation. The reactants were separated in the pockets of a tandem cuvette, followed by deoxygenation by argon bubbling. The separate solutions were mixed at 1:30 metal complex:GSH molar ratios, and UV–vis spectra were recorded. Argon was continuously passed over the sample during the whole measurement.
# [17] = molecular target: T1, hen egg white lysozyme (HEWL); assay: Reaction with lysozyme followed by UV-vis at 280 nm, pseudo-first-order kinetics; format: binding; conditions: metal:protein 3:1, 5 mM Tris/3% DMSO, 37 °C, absorbance at 280 nm
# Protocol: The interaction of complexes (2) and (3) with hen egg white lysozyme (HEWL) was investigated using a 10^–5 M solution of the protein. Lysozyme is a widely used model protein for studying the binding of potential metallodrugs. The sample preparation for this assay was carried out using the same protocol of the samples for the DNA interactions studies by UV–vis spectrophotometry. The integrity of the enzyme was checked in each experiment, with a comparison of fresh and incubated samples. UV–vis spectra were recorded before and after incubation with the complex (dissolved in 97% 5 mM Tris/3% DMSO) for 24 h at 37 °C. A metal to protein ratio of 3:1 was used for these studies, a ratio that affords similar results to 10:1 and eases the sample preparation. The experimental time-dependent profiles of the spectra were analyzed as pseudo-first-order reactions by plotting the variation of the absorbance as a function of time.
# [18] = test system: calf thymus-DNA (CT-DNA); assay: UV-vis titration with CT-DNA; format: binding; conditions: complex/DNA ratio 0 to 0.79; 5 mM Tris, 50 mM NaCl, pH 7.40, 25 °C
# Protocol: To investigate the potential binding ability of the palladium complexes (2) and (3) with DNA, UV–vis titrations (240 to 700 nm) were performed at room temperature. During the titrations, the CT-DNA concentration (5.08 × 10^–5 M) was kept constant, while the concentration of each complex (0 to 2.00 × 10^–5 M) was varied. The changes in the typical absorbance of CT-DNA at 260 nm were monitored after equilibration (10 min) and after 1 h of incubation at 37 °C. […] Control experiments with DMSO were performed, and no changes in the CT-DNA spectrum were observed.
compound,measurement,setting,value
N.N.[Cl][Pt][Cl] [Cisplatin],IC50,[1],15 ± 0.01 µM
same,effect on relative viscosity of CT-DNA,[2],relative viscosity of the solution decreases
same,"effect on electrophoretic mobility of pBR322 (two forms, SC and OC)",[3],changes in the mobility of the pBR322 isoforms
same,observed rate constant k obs,[4],1.98 × 10^–4 s^–1
same,IC50,[5],23 ± 1 µM
"S=C(N/N=C/c1c[nH]cn1)Nc1ccc(Cl)cc1 [HL, 1H-Imidazole-4-carboxaldehyde(4N-p-chlorophenyl)thiosemicarbazone]",IC50,[6]; Homo sapiens,19.1 ± 0.6 µM
same,IC50,[7],2970 ± 320 nM
same,solubility,[8],poor solubility
same,MIC,"[9]; Staphylococcus aureus, ATCC 43300 / MRSA",50 µM
same,pKa,"[10]; 30% (v/v) DMSO/H2O solvent mixture, 30% (v/v) DMSO/H2O, read-out: pKa1",4.38 ± 0.03
same,pKa,"[10]; 30% (v/v) DMSO/H2O solvent mixture, 30% (v/v) DMSO/H2O, read-out: pKa2",10.96 ± 0.04
same,pKa,"[10]; 60% (v/v) DMSO/H2O solvent mixture, 60% (v/v) DMSO/H2O, read-out: pKa1",3.81 ± 0.02
same,pKa,"[10]; 60% (v/v) DMSO/H2O solvent mixture, 60% (v/v) DMSO/H2O, read-out: pKa2",11.12 ± 0.01
same,pKa,"[10]; pure water (0% DMSO), predicted value, 0% DMSO (pure water), predicted value, read-out: pKa1",4.58
same,pKa,"[10]; pure water (0% DMSO), predicted value, 0% DMSO (pure water), predicted value, read-out: pKa2",10.9
same,logD,"[11]; n-octanol/Tris HCl buffer, pH 7.4, n-octanol/5 mM Tris HCl with 0.1 M KCl, pH 7.40, 25.0 °C, read-out: log D o/t",1.58
same,logD,"[11]; n-octanol/pure (unbuffered) water, 1:1, read-out: log D o/w",0.9
same,MIC,"[12]; Enterococcus faecalis, ATCC29212, 18 h",100 µM
same,MIC,"[13]; Escherichia coli, ATCC25922, 18 h",25 µM
same,MIC,[14]; Staphylococcus aureus,100 µM
same,MIC,[15]; Klebsiella pneumoniae,> 100 µM
Chlorido(dimethyl sulfoxide)(1H-imidazole-4-carboxaldehyde-4N-p-chlorophenylthiosemicarbazonato)palladium(II) [(3)],IC50,[6],16.2 ± 1.18 µM
same,MIC,"[9]; S. aureus (MRSA), 37 °C",> 100 µM
same,time to equilibrium of the reaction with GSH,[16],≤ 30 min
same,observed rate constant k obs,[17],(8.75 ± 0.09) × 10^–5 s^–1
same,effect on electrophoretic mobility of supercoiled pBR322 (pure form),[3],small unwinding
same,change of CT-DNA absorption at 260 nm,[18],absorption values of DNA–complex samples increase
same,MIC,"[12]; E. faecalis, 18 h, 37 °C",> 100 µM
same,MIC,"[13]; E. coli, 18 h, 37 °C",> 100 µM
same,MIC,"[14]; S. aureus, 37 °C",> 100 µM
same,MIC,"[15]; K. pneumoniae, 37 °C",> 100 µM
